{
  "source": "patent US8465963B2",
  "about": "“Grass endophyte enhanced attributes” (priority 2005, dated 2013)",
  "key": {"[1]": {"system": "Neotyphodium endophytes in perennial ryegrass", "conditions": "fungicide soak; cited from earlier work"}, "[2]": {"system": "Neotyphodium endophytes in tall fescue", "conditions": "fungicide soak; cited from earlier work"}, "[3]": {"system": "endophytes (AR502, AR542 and AR584)", "experiment": "Trial 1 field trial: effect of fungicides on viable endophytes, means over endophytes", "conditions": "means of all other treatments", "description": "The pH of the solution is 7.5."}, "[4]": {"system": "ryegrass (Lolium perenne) seed infected with Neotyphodium endophyte", "conditions": "prochloraze 1 g/kg; triticonazole 5 and 10 g/kg; cited from earlier work"}},
  "data": [
    {"molecule": "COC(=O)NC(=S)Nc1ccccc1NC(=S)NC(=O)OC", "note": "[Thiophanate-methyl]", "values": [
      {"measurement": "effect of fungicide on endophyte", "setting": "[1]", "value": "little effect on endophyte"},
      {"measurement": "effect of fungicide on endophyte", "setting": "[2]", "value": "no effect on endophyte"}
    ]},
    {"molecule": "O=CNC(N1CCN(C(NC=O)C(Cl)(Cl)Cl)CC1)C(Cl)(Cl)Cl", "note": "(stereo not drawn) [Triforine]", "values": [
      {"measurement": "effect of fungicide on endophyte", "setting": "[1]", "value": "effective in some perennial ryegrass plants"},
      {"measurement": "effect of fungicide on endophyte", "setting": "[2]", "value": "effective in tall fescue"}
    ]},
    {"molecule": "Fc1ccc([C@]2(Cn3cncn3)O[C@H]2c2ccccc2Cl)cc1", "note": "[epiconazole]", "values": [
      {"measurement": "level of viable endophyte", "setting": "[3]", "value": "most significantly reducing viable endophyte levels"}
    ]},
    {"molecule": "CCCCNC(=O)n1c(NC(=O)OC)nc2ccccc21", "note": "[benomyl]", "values": [
      {"measurement": "effect of fungicide on endophyte", "setting": "[1]", "value": "effective in killing endophyte"},
      {"measurement": "effect of fungicide on endophyte", "setting": "[2]", "value": "effective in killing endophyte"}
    ]},
    {"molecule": "CCCN(CCOc1c(Cl)cc(Cl)cc1Cl)C(=O)n1ccnc1", "note": "[prochloraze]", "values": [
      {"measurement": "seed germination", "setting": "[4]", "value": "effected"}
    ]},
    {"molecule": "CC1(C)CCC(=Cc2ccc(Cl)cc2)C1(O)Cn1cncn1", "note": "(stereo not drawn) [triticonazole]", "values": [
      {"measurement": "seed germination", "setting": "[4]", "value": "effected"}
    ]}
  ]
}
